This is an account of results in patent publication US5608091A, “Quinizarin compound, method for production thereof, and use therefor” (Nippon Shokubai Co., Ltd., priority 1993, dated 1997).

Assay type in all cases: physicochemical
One data set can be described thus: Color tone of the dye. Conditions: Tables 1-9.
Data set [1] in a line: Solubility in toluene and methyl ethyl ketone, three-point scale. From the text: In these tables, the solubility is rated on the three-point scale, wherein Δ stands for a solubility of less than 1% by weight, .largecircle. for a solubility in the approximate range of 1 to 3% by weight, and .circleincircle. for a solubility of not less than 3% by weight.
Data set [2] can be described thus: Visible absorption spectrum (λmax, ε). Conditions: for ε: in M-1 cm-1 (unit assumed).

As to `O=C1c2c(O)ccc(O)c2C(=O)c2c(F)c(Nc3ccccc3)c(F)c(F)c21` [(1)], in the data set “Color tone of the dye”, the Color tone entry is given as “Magenta”. For the same molecule, the “Solubility in methyl ethyl ketone” value in data set [1] was “Δ (a solubility of less than 1% by weight)”. For the same molecule, the Solubility in toluene result in data set [1] (in toluene) is reported as “.largecircle. (a solubility in the approximate range of 1 to 3% by weight)”. In data set [2] (in chloroform), this molecule displayed a λ max of 533 nm. The molecule further showed a ε in data set [2] (in chloroform, at λ max) of 14800.

In the case of `CCOC(=O)c1cccc(Nc2c(F)c(F)c3c(c2F)C(=O)c2c(O)ccc(O)c2C3=O)c1` [(4)], in the data set “Color tone of the dye”, the Color tone result was “Magenta”. Also, the “Solubility in methyl ethyl ketone” value in data set [1] is “.largecircle. (a solubility in the approximate range of 1 to 3% by weight)”. Also, the Solubility in toluene entry in data set [1] (in toluene) was “.largecircle. (a solubility in the approximate range of 1 to 3% by weight)”. For the same molecule, the λ max in data set [2] (in chloroform) was 527 nm. Also, the ε in data set [2] (in chloroform, at λ max) is 15300.

Take `CCCCOC(=O)c1ccccc1Nc1c(F)c(F)c2c(c1F)C(=O)c1c(O)ccc(O)c1C2=O` [(5)]: the Color tone result in “Color tone of the dye” is on record as “Magenta”. Moreover, in data set [1], the “Solubility in methyl ethyl ketone” value was “.circleincircle. (a solubility of not less than 3% by weight)”. Also, the Solubility in toluene entry in data set [1] (in toluene) is “.circleincircle. (a solubility of not less than 3% by weight)”. The λ max in data set [2] (in chloroform) was determined as 530 nm. This molecule registered a ε in data set [2] (in chloroform, at λ max) of 8600.

Turning to `CCCCOC(=O)c1ccc(Nc2c(F)c(F)c3c(c2F)C(=O)c2c(O)ccc(O)c2C3=O)cc1` [(6)], the Color tone entry in the data set “Color tone of the dye” is reported as “Magenta”. Besides, the “Solubility in methyl ethyl ketone” value in data set [1] was “.largecircle. (a solubility in the approximate range of 1 to 3% by weight)”. In addition, the Solubility in toluene entry in data set [1] (in toluene) was “.largecircle. (a solubility in the approximate range of 1 to 3% by weight)”. The molecule further returned a λ max in data set [2] (in chloroform) of 528 nm. Moreover, in data set [2] (in chloroform, at λ max), the ε worked out at 17900.

Consider `CCCCCCCCOC(=O)c1cccc(Nc2c(F)c(F)c3c(c2F)C(=O)c2c(O)ccc(O)c2C3=O)c1` [(8)], for which the Color tone entry in the data set “Color tone of the dye” was “Magenta”. Also, the “Solubility in methyl ethyl ketone” value in data set [1] is listed as “.largecircle. (a solubility in the approximate range of 1 to 3% by weight)”. For the same molecule, the Solubility in toluene result in data set [1] (in toluene) is recorded as “.largecircle. (a solubility in the approximate range of 1 to 3% by weight)”. The molecule also registered a λ max in data set [2] (in chloroform) of 526 nm. The molecule also came in with a ε in data set [2] (in chloroform, at λ max) of 17600.

As to `N#Cc1ccc(Nc2c(F)c(F)c3c(c2F)C(=O)c2c(O)ccc(O)c2C3=O)cc1` [(10)], the Color tone result in the data set “Color tone of the dye” was “Magenta”. Also, in data set [1], the “Solubility in methyl ethyl ketone” value is listed as “Δ (a solubility of less than 1% by weight)”. In data set [1] (in toluene), the Solubility in toluene result is listed as “Δ (a solubility of less than 1% by weight)”. Moreover, the λ max in data set [2] (in chloroform) is reported as 523 nm. This molecule showed a ε in data set [2] (in chloroform, at λ max) of 20600.

With `O=C1c2c(O)ccc(O)c2C(=O)c2c(F)c(Nc3ccc([N+](=O)[O-])cc3)c(F)c(F)c21` [(12)], the Color tone entry in “Color tone of the dye” is on record as “Magenta”. The “Solubility in methyl ethyl ketone” value in data set [1] is reported as “Δ (a solubility of less than 1% by weight)”. In addition, the Solubility in toluene result in data set [1] (in toluene) is “Δ (a solubility of less than 1% by weight)”. This molecule returned a λ max in data set [2] (in chloroform) of 521 nm. In data set [2] (in chloroform, at λ max), this molecule yielded a ε of 16300.

In the case of `O=C1c2c(O)ccc(O)c2C(=O)c2c(F)c(Nc3ccc(S(=O)(=O)O)cc3)c(F)c(F)c21` [(27)], in data set [2] (in methanol), the λ max was found to be 521.5 nm and the ε is recorded as 10600.

In the case of `CC(C)c1cccc(C(C)C)c1Nc1ccc2c(c1)C(=O)c1c(O)ccc(O)c1C2=O` [(99)], the Solubility entry in data set [1] (in toluene) is reported as “Not less than 3 % by weight”. In data set [2] (in toluene), this molecule showed a λ max of 560 nm and a ε of 14850.

With `O=C1c2c(O)ccc(O)c2C(=O)c2c(F)c(Oc3ccccc3)c(Nc3c(Cl)cccc3Cl)c(F)c21` [(110)], the λ max in data set [2] (in chloroform) stood at 521.0 nm. In data set [2] (in chloroform, at λ max), this molecule yielded a ε of 17900.

The molecule `CCOC(=O)c1cccc(Nc2c(F)c3c(c(F)c2Sc2ccccc2)C(=O)c2c(O)ccc(O)c2C3=O)c1` [(115)] registered a λ max in data set [2] (in chloroform) of 540 nm. For the same molecule, the ε in data set [2] (in chloroform, at λ max) was determined as 17000.

As to `CC(C)c1cccc(C(C)C)c1Nc1c(F)c2c(c(Nc3c(C(C)C)cccc3C(C)C)c1Nc1c(C(C)C)cccc1C(C)C)C(=O)c1c(O)ccc(O)c1C2=O` [Dye (245), 5,6,7-tris(2,6-diisopropylanilino)-8-fluoroquinizarin], the ε in data set [2] (in ethyl cellosolve) came out at 29200.
